From ChEMBL document CHEMBL4257221, “Peptides comprising non-natural amino acids and methods of making and using the same” (2016) come the findings set out here.

Active and inactive are the calls of the source. No cut-off for these calls is given here. Numbered stars: 1 amine (or outer) side, 2 acyl side, 3 side chain; on linkers, the order of the positions; unused ones are H or OH. Square brackets hold non-standard residues; d marks the D form. Peptide text beside a SMILES is read from it. ξ: configuration not given here. X1 = O=C([C@H]1CCC[C@@H]1N[*:1])[*:2]; X2 = O=C([C@H]1CNC[C@@H]1N[*:1])[*:2]; ξβ3hQ = NC(=O)CCC(N)CC(=O)O; ξβ3hL = CC(C)CC(N)CC(=O)O; ξβ3hK = NCCCCC(N)CC(=O)O; ξβ3hT = CC(O)C(N)CC(=O)O; ξβ3hV = CC(C)C(N)CC(=O)O; βAla = NCCC(=O)O

As a reminder, the EC50 is the concentration that produces a half-maximal response.

For one data set, the target named is Chymotrypsin (Homo sapiens, UniProt Q99895+P17538+P40313+Q6GPI1). In words: Stability of the compound assessed as chymotrypsin (unknown origin)-mediated compound hydrolysis at 250 uM by HPLC analysis. The class given is ADME.
Data set [1] has as its target T1, Vasoactive intestinal polypeptide receptor 1 (Homo sapiens, UniProt P32241).
T1 sequence (P32241 whole entry): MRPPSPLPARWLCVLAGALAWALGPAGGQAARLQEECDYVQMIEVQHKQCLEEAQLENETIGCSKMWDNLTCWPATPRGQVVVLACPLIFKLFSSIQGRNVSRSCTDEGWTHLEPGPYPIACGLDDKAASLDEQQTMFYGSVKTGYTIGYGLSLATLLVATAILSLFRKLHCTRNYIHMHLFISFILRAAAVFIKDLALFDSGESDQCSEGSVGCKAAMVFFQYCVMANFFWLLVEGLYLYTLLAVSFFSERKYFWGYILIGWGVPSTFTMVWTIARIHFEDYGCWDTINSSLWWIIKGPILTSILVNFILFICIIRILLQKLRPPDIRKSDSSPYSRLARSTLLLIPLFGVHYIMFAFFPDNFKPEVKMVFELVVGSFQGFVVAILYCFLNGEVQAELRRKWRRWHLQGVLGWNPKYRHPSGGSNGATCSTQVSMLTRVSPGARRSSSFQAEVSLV
Briefly: Agonist activity at human VIPR1 expressed in CHOK1 cells assessed as intracellular cAMP accumulation after 60 mins by PathHunter assay. The class given is functional, cell-based.

In data set [2] the target is T2, Vasoactive intestinal polypeptide receptor 2 (Homo sapiens, UniProt P41587).
T2 sequence (P41587 whole entry): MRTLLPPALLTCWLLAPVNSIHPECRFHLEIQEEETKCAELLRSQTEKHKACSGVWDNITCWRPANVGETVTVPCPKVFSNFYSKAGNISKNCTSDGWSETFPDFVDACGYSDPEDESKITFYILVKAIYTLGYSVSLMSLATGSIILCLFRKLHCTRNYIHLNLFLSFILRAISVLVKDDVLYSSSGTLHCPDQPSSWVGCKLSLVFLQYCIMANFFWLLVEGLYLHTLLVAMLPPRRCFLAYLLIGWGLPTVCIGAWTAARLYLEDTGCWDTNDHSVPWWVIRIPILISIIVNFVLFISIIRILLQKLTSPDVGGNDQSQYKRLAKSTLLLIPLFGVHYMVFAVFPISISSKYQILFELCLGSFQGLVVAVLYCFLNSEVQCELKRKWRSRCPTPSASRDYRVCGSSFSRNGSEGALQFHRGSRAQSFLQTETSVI
Briefly: Agonist activity at human VIPR2 expressed in CHOK1 cells assessed as intracellular cAMP accumulation after 60 mins by PathHunter assay. Type of data set: functional, cell-based.

A further data set concerns the target Proteinase K (Engyodontium album, UniProt P06873). In words: Stability of the compound assessed as Tritirachium album proteinase K-mediated compound hydrolysis at 250 uM by HPLC analysis. The class given is ADME. Particulars: parengyodontium album.
The target of a further data set is Dipeptidyl peptidase 4 (Homo sapiens, UniProt P27487). In words: Stability of the compound assessed as DPP4 (unknown origin)-mediated compound hydrolysis at 250 uM by HPLC analysis. Type of data set: ADME.
Chain of Dipeptidyl peptidase 4 (P27487 whole entry): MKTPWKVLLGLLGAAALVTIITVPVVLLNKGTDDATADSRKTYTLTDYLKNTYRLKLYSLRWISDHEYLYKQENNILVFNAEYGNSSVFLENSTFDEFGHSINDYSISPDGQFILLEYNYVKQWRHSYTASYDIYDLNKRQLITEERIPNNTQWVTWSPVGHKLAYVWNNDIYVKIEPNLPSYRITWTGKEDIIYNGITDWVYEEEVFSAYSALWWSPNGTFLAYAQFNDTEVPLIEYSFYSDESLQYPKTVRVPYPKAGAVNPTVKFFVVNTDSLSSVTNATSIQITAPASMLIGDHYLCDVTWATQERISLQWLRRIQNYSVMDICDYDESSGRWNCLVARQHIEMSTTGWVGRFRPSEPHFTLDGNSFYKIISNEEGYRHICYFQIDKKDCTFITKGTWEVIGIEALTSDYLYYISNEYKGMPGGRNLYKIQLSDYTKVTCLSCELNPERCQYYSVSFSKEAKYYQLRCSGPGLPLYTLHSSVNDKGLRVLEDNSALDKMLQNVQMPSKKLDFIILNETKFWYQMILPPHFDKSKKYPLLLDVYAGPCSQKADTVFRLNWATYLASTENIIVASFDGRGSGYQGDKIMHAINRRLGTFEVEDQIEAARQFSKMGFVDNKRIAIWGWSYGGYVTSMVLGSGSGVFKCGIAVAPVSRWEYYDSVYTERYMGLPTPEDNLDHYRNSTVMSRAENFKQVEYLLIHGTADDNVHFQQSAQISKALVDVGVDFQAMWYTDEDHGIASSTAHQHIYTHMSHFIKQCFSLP
The subject of data set [3] is Mus musculus. In words: Stimulation of Treg cells function in C57BL/6 mouse splenocytes assessed as suppression of anti-CD3-stimulated CD4+/CD25- naive T cells proliferation at 300 ug, ip pretreated daily for 5 days followed by splenocytes isolation and co-culture with CD4+/CD25- naive T cells. Type of data set: functional, organism-based.
The subject of data set [4] is Mus musculus. In words: Anti-parkinson's activity in MPTP-induced C57BL/6 mouse model of Parkinson's disease receiving adaptive transfer of splenocytes from 15 ug/day/5 days, ip compound treated donor mouse assessed as TH-positive neurons survival rate in substantia nigra measured on day 7 post MPTP intoxication by FJ-C staining based assay (reference value: 24.5%). The class given is functional.

Data set [5] relates to Mus musculus. In words: Stimulation of Treg cells function in C57BL/6 mouse splenocytes assessed as suppression of anti-CD3-stimulated effector T cell proliferation pretreated ip daily for 5 days followed by splenocytes isolation and co-culture with untreated splenocytes at 1:1 ratio. Type of data set: functional, organism-based.
Data set [6] concerns Mus musculus. In words: Anti-parkinson's activity in MPTP-induced C57BL/6 mouse model of Parkinson's disease receiving adaptive transfer of splenocytes from 15 ug/day/5 days, ip compound treated donor mouse assessed as TH-positive neurons survival rate in substantia nigra at 15 ug/day, ip for 5 days measured on day 7 post MPTP intoxication by FJ-C staining based assay relative to control. The class given is functional.

In data set [7] the target is T1, Vasoactive intestinal polypeptide receptor 1. In words: Induction of VIPR1 receptor internalization in CHOK1 cells expressing human VIPR1 by beta-galactosidase reporter gene assay. The class given is functional, cell-based. A general note: A reporter such as luciferase makes a cellular process visible.

Chain of Proteinase K (P06873 whole entry): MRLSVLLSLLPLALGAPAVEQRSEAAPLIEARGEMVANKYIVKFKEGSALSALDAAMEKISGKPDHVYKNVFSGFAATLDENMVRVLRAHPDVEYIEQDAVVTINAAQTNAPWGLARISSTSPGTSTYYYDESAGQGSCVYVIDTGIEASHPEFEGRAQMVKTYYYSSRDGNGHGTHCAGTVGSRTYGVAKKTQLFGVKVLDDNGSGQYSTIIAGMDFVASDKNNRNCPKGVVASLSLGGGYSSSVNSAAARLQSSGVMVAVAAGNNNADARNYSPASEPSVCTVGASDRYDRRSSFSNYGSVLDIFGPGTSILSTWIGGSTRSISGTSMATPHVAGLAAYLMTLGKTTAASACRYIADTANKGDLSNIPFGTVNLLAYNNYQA

With `CC(=O)N[C@@H](Cc1cnc[nH]1)C(=O)N[C@H]1CCC[C@@H]1C(=O)N[C@@H](CC(=O)O)C(=O)N[C@@H](C)C(=O)N[C@H]1CCC[C@@H]1C(=O)N[C@@H](Cc1ccccc1)C(=O)N[C@H](C(=O)N[C@@H](CCC(=O)O)C(=O)N[C@@H](CC(N)=O)C(=O)N[C@@H](Cc1ccc(O)cc1)C(=O)N[C@H](C(=O)N[C@@H](CCCCN)C(=O)N[C@@H](CC(C)C)C(=O)N[C@@H](CCCNC(=N)N)C(=O)N[C@@H](CCCCN)C(=O)N[C@@H](CCC(N)=O)C(=O)N[C@@H](CC(C)C)C(=O)N[C@@H](C)C(=O)N[C@@H](C)C(=O)N[C@H]1CNC[C@@H]1C(=O)N[C@@H](CCCCN)C(=O)N[C@@H](Cc1ccc(O)cc1)C(=O)N[C@H]1CCC[C@@H]1C(=O)N[C@@H](CC(N)=O)C(=O)N[C@@H](CC(=O)O)C(=O)N[C@@H](CC(C)C)C(=O)NC(CCCCN)CC(=O)N[C@@H](CCCCN)C(=O)NCC(=O)NCCC(=O)N[C@H](C(=O)O)[C@@H](C)O)[C@@H](C)O)[C@@H](C)O` (stereo partly drawn) (Ac-H[X1]DA[X1]FTENYTKLRKQLAA[X2]KY[X1]NDL[ξβ3hK]KG[βAla]T-OH), the Stability result at Chymotrypsin, at Proteinase K and on Dipeptidyl peptidase 4 was “Stable” throughout. In addition, the figures for the concentration for a half-maximal effect (EC50) in data set [1] and in [2] were 133 nM and 0.646 nM, respectively.

For the compound `CC(=O)N[C@@H](Cc1cnc[nH]1)C(=O)N[C@H]1CCC[C@@H]1C(=O)N[C@@H](CC(=O)O)C(=O)N[C@@H](C)C(=O)N[C@H]1CCC[C@@H]1C(=O)N[C@@H](Cc1ccccc1)C(=O)N[C@H](C(=O)N[C@@H](CCC(=O)O)C(=O)N[C@@H](CC(N)=O)C(=O)N[C@@H](Cc1ccc(O)cc1)C(=O)N[C@H](C(=O)N[C@@H](CCCCN)C(=O)N[C@@H](CC(C)C)C(=O)N[C@@H](CCCNC(=N)N)C(=O)N[C@@H](CCCCN)C(=O)NC(CCC(N)=O)CC(=O)N[C@@H](CC(C)C)C(=O)N[C@@H](C)C(=O)N[C@@H](C)C(=O)N[C@H]1CNC[C@@H]1C(=O)N[C@@H](CCCCN)C(=O)N[C@@H](Cc1ccc(O)cc1)C(=O)N[C@H]1CCC[C@@H]1C(=O)N[C@@H](CC(N)=O)C(=O)N[C@@H](CC(=O)O)C(=O)N[C@@H](CC(C)C)C(=O)NC(CCCCN)CC(=O)N[C@@H](CCCCN)C(=O)NCC(=O)NCCC(=O)NC(CC(=O)O)C(C)O)[C@@H](C)O)[C@@H](C)O` (stereo partly drawn) (Ac-H[X1]DA[X1]FTENYTKLRK[ξβ3hQ]LAA[X2]KY[X1]NDL[ξβ3hK]KG[βAla][ξβ3hT]-OH), the result in the data set with Mus musculus [3] was Active. Also, the Survival in the data set on Mus musculus [4] came to 79.7%. The Activity entry in the data set with Mus musculus [5] is “Dose-dependent effect”.

`CC[C@H](C)[C@H](NC(=O)C1CCCN1C(=O)[C@H](CCC(N)=O)NC(=O)[C@H](CC(C)C)NC(=O)[C@H](Cc1ccc(O)cc1)NC(=O)[C@H](CCCCN)NC(=O)[C@H](CCCCN)NC(=O)[C@H](C)NC(=O)C1CCCN1C(=O)[C@@H](NC(=O)[C@H](CCC(N)=O)NC(=O)C1CCCN1C(=O)[C@H](CCCNC(=N)N)NC(=O)[C@H](CC(C)C)NC(=O)[C@H](CCCNC(=N)N)NC(=O)[C@@H](NC(=O)[C@H](Cc1ccc(O)cc1)NC(=O)[C@H](CC(N)=O)NC(=O)[C@H](CC(=O)O)NC(=O)[C@@H](NC(=O)[C@H](Cc1ccccc1)NC(=O)[C@@H](NC(=O)[C@H](C)NC(=O)[C@H](CC(=O)O)NC(=O)[C@H](CO)NC(=O)[C@@H](N)Cc1cnc[nH]1)C(C)C)[C@@H](C)O)[C@@H](C)O)C(C)C)C(=O)N[C@@H](CCCCN)C(=O)N[C@@H](CC(N)=O)C(=O)N[C@@H](CCCCN)C(=O)N[C@@H](CCCNC(=N)N)C(=O)N[C@@H](Cc1ccc(O)cc1)C(=O)O` (some centres not stated): the outcome in the data set on Mus musculus [3] was Active. The Survival in the data set with Mus musculus [4] is on record as 50.2%; in the data set on Mus musculus [6], 69.1%. In addition, in the data set on Mus musculus [5], the Activity entry is “Dose-dependent effect”.

On to `CC[C@H](C)[C@H](NC(=O)[C@H](C)NC(=O)[C@H](CC(N)=O)NC(=O)CC(CC(C)C)NC(=O)[C@H](Cc1ccc(O)cc1)NC(=O)[C@H](CCCCN)NC(=O)[C@H](CCCCN)NC(=O)CC(NC(=O)[C@H](C)NC(=O)[C@H](CC(C)C)NC(=O)[C@H](CCC(N)=O)NC(=O)CC(CCCCN)NC(=O)[C@H](CCCNC(=N)N)NC(=O)[C@H](CC(C)C)NC(=O)[C@H](CCCNC(=N)N)NC(=O)CC(NC(=O)[C@H](Cc1ccc(O)cc1)NC(=O)[C@H](CC(N)=O)NC(=O)[C@H](CC(=O)O)NC(=O)[C@@H](NC(=O)[C@H](Cc1ccccc1)NC(=O)[C@@H](NC(=O)[C@H](C)NC(=O)[C@H](CC(=O)O)NC(=O)[C@H](CO)NC(=O)[C@@H](N)Cc1cnc[nH]1)C(C)C)[C@@H](C)O)C(C)O)C(C)C)C(=O)NC(CC(=O)N[C@@H](CC(N)=O)C(=O)O)CC(C)C` (stereo partly drawn) (H-HSDAVFTDNY[ξβ3hT]RLR[ξβ3hK]QLA[ξβ3hV]KKY[ξβ3hL]NAI[ξβ3hL]N-OH), for which the EC50 in data set [1] came to 2.17 nM; in data set [7], 10.2 nM.

As for `CCCC[C@H](NC(=O)[C@H](CCC(N)=O)NC(=O)[C@H](CCCCN)NC(=O)[C@H](CCCNC(=N)N)NC(=O)[C@H](CC(C)C)NC(=O)[C@H](CCCCN)NC(=O)[C@@H](NC(=O)[C@H](Cc1ccc(O)cc1)NC(=O)[C@H](CC(N)=O)NC(=O)[C@H](CCC(=O)OC(=O)[C@H](C)NC(=O)[C@H](CC(=O)O)NC(=O)[C@H](CO)NC(=O)[C@H](Cc1c[nH]cn1)NC(C)=O)NC(=O)[C@@H](NC(=O)[C@H](Cc1ccccc1)NC(=O)[C@@H](N)C(C)C)[C@@H](C)O)[C@@H](C)O)C(=O)N[C@@H](C)C(=O)N[C@@H](C)C(=O)N[C@@H](CCCCN)C(=O)N[C@@H](CCCCN)C(=O)N[C@@H](Cc1ccc(O)cc1)C(=O)N[C@@H](CC(C)C)C(=O)N[C@@H](CC(N)=O)C(=O)NC(=O)[C@@H](NC(=O)CNC(=O)CNC(=O)[C@@H]1CCCCN[C@@H](CC(N)=O)C(=O)N[C@@H](CC(C)C)C(=O)N[C@@H](CCCCN)C(=O)N1)[C@@H](C)O`, the Stability entry on Chymotrypsin, on Proteinase K and on Dipeptidyl peptidase 4 was “Stable” throughout.
